Patent US8192935B2, “Methods for assessing cisplatin resistance, disease progression, and treatment efficacy in ovarian cancer as related to MetAP2 expression” (The Penn State Research Foundation, priority 2003, dated 2012)
Read-outs that look alike come from different tables or passages of the source.

What was measured:
[1] = tested on: OVCAR-3 cells; experiment: MTT assay, cis-platin sensitivity with siRNA; type: cell-based, human; settings: OVCAR-3 cells with specific siRNA
[2] = tested on: e-IF2Bε (BC013590); experiment: siRNA-mediated knockdown of gene expression; type: cell-based, human; settings: ovarian cancer cell lines
[3] = tested on: OVCA 429 cells; settings: for 429: increased sensitivity to cis-platin: OVCA 429 cells with specific siRNA
[4] = tested on: WDR1 (AB010427); experiment: siRNA-mediated knockdown of gene expression; type: cell-based, human; settings: OVCA 429 cells
[5] = tested on: SAPK/Erk1 (L36870); experiment: siRNA-mediated knockdown of gene expression; type: cell-based, human; settings: ovarian cancer cell lines
[6] = tested on: MetAP-2 messenger RNA; experiment: siRNA knockdown, quantitative real-time PCR; settings: OVCA 429 (FIG. 44)
Experimental: The reaction mixture was then incubated at 42° C. for 60 minutes. cDNA dilutions from 1:4 to 1:256 were prepared. […] Green PCR Master Mix (Qiagen), 0.3 μM of forward primer, 0.3 μM of reverse primer, and RNase free water were added to a final volume of 45 μl.
Sequence detection was determined using the ABI Prism 7700 (Applied Biosystems, Inc., Foster City, Calif.) sequence detection system or the MJ Research (Waltham, Mass.) Opticon II system as follows: PCR initial activation step was carried out for 15 minutes at 95° C.; samples were denatured for 15 seconds at 94° C., annealed for 30 seconds at 53° C. (55° C. when the Opticon II system was used), and extended for 30 seconds at 72° C. (data was acquired during this step); the PCR reaction was repeated for 50 cycles. A melting curve analysis was prepared by adding on the following steps: 15 seconds at 95° C., 20 seconds at 60° C., and 20 seconds at 95° C.
The siRNA experiments described herein were conducted using the siPORT Lipid protocol (Ambion). […]
Cells were transfected with the siRNA constructs following instruction from the supplier (Ambion). […] The OD260 readings of siRNA were performed in duplicate at a 1:100 dilution. The readings were averaged, then multiplied by the dilution factor and then by multiplied by 40 (the OD260of 1 is equal to 40 μg/ml of RNA) to get the final concentration of siRNA in μg/ml. […]

[7] = tested on: SRB1/CLA1/CD3611 (BCO22087); experiment: siRNA-mediated knockdown of gene expression; type: cell-based, human; settings: ovarian cancer cell lines
[8] = tested on: RNPS1 (AF015608); experiment: siRNA-mediated knockdown of gene expression; type: cell-based, human; settings: ovarian cancer cell lines
[9] = tested on: NM23-D (BC004880); experiment: siRNA-mediated knockdown of gene expression; type: cell-based, human; settings: OVCA 429 cells
[10] = tested on: eEF1ε (BC005291); experiment: siRNA-mediated knockdown of gene expression; type: cell-based, human; settings: ovarian cancer cell lines
[11] = tested on: S100A11 message; experiment: siRNA knockdown of gene expression; type: cell-based, human; settings: OVCA 429 (FIG. 57)
[12] = biological target: MetAP-2 (Homo sapiens, UniProt P50579); settings: Griffith et al.; cited from earlier work
[13] = tested on: MetAP-2; settings: several different cell types; Wang et al., 2000; cited from earlier work
[14] = tested on: human colon cancer; settings: Tanaka et al., 1995; cited from earlier work

MetAP-2 (Homo sapiens, UniProt P50579), sequence (P50579 whole entry, species assumed): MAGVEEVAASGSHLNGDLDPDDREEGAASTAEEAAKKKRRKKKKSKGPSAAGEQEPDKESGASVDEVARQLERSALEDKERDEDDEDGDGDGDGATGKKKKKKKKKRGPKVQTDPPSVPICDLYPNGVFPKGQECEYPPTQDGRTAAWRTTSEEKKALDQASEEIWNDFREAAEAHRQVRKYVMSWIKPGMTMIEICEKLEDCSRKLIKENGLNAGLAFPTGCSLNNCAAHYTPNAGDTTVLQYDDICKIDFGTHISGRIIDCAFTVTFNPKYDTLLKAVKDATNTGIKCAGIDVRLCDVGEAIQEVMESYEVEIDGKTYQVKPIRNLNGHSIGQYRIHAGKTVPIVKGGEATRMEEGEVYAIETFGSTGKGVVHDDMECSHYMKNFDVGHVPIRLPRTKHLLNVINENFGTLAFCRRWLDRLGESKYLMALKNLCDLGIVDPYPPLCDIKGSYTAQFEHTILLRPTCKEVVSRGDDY

eIF2Bε siRNA #1: siRNA to e-IF2Bε; target sequence AATGTGGTTCGAATAATTACA (guide AATGTGGTTCGAATAATTACA; target site or template, no part of the molecule; listed as DNA, chemistry not given here; listed as Homo Sapiens)
OVCAR-3: increased sensitivity to cis-platin [1]: yes | reduction in the level of e-IF2Bε mRNA [2]: 57% | 429: increased sensitivity to cis-platin [3]: yes

WDR1 siRNA #1: siRNA to WDR1; target sequence AATGGAAAGTGCGTCATCCTA (guide AATGGAAAGTGCGTCATCCTA; target site or template, no part of the molecule; listed as DNA, chemistry not given here; listed as Homo Sapiens)
OVCAR-3: increased sensitivity to cis-platin [1]: yes | reduction of WDR1 mRNA levels compared to control [4]: approximately 85% | 429: increased sensitivity to cis-platin [3]: no

SAPK/Erk1 siRNA #2: siRNA to SAPK/Erk1; target sequence AAGCGCATCACGACAAGGATA (guide AAGCGCATCACGACAAGGATA; target site or template, no part of the molecule; listed as DNA, chemistry not given here; listed as Homo Sapiens)
OVCAR-3: increased sensitivity to cis-platin [1]: yes | reduction in the level of SAPK mRNA [5]: 60% | 429: increased sensitivity to cis-platin [3]: yes

MetAP-2 siRNA #2: siRNA to MetAP-2; target sequence AAGCA CAT CGA CAA GTT AGA A (guide AAGCACATCGACAAGTTAGAA; target site or template, no part of the molecule; listed as DNA, chemistry not given here; listed as Homo Sapiens)
levels of MetAP-2 expression [6]: did not result in a reduction

SRB1 siRNA #3: siRNA to SRB1; target sequence AATTCAGAACGTCAGCACCTG (guide AATTCAGAACGTCAGCACCTG; target site or template, no part of the molecule; listed as DNA, chemistry not given here; listed as Homo Sapiens)
reduction in the level of SRB1 mRNA [7]: successful in reducing the expression of SRB1

RNPS1 siRNA #1: siRNA to RNPS1; target sequence AATATTCATACGGCATGGACT (guide SDNAATATTCATACGGCATGGACT; target site or template, no part of the molecule; listed as DNA, chemistry not given here; listed as Homo Sapiens)
reduction in the level of RNPS1 mRNA [8]: 35% | 429: increased sensitivity to cis-platin [3]: yes

NM23D siRNA #3: siRNA to NM23-D; target sequence AATGTCATCCACGCCAGCGAC (guide AATGTCATCCACGCCAGCGAC; target site or template, no part of the molecule; listed as DNA, chemistry not given here; listed as Homo Sapiens)
OVCAR-3: increased sensitivity to cis-platin [1]: yes | reduction of NM23-D mRNA levels compared to control [9]: approximately 50% | 429: increased sensitivity to cis-platin [3]: yes

WDR1 siRNA #3: siRNA to WDR1; target sequence AAGTGCTTCAGCATCGACAAC (guide AAGTGCTTCAGCATCGACAAC; target site or template, no part of the molecule; listed as DNA, chemistry not given here; listed as Homo Sapiens)
reduction of WDR1 mRNA levels compared to control [4]: approximately 70%

eEF1ε siRNA #1: siRNA to eEF1ε; target sequence AACAGGATTGACTACTATAGC (guide AACAGGATTGACTACTATAGC; target site or template, no part of the molecule; listed as DNA, chemistry not given here; listed as Homo Sapiens)
reduction in the level of eEF1ε mRNA [10]: 65%

eIF2Bε siRNA #3: siRNA to e-IF2Bε; target sequence AATCAACAGCTGCAGAGGTTC (guide AATCAACAGCTGCAGAGGTTC; target site or template, no part of the molecule; listed as DNA, chemistry not given here; listed as Homo Sapiens)
reduction in the level of e-IF2Bε mRNA [2]: 43%

S100A11 siRNA #2: siRNA to S100A11; AA GAA ACT GGA CAC CAA CAG T (guide AAGAAACTGGACACCAACAGT; target site or template, no part of the molecule; listed as DNA, chemistry not given here; listed as Homo Sapiens)
knockdown of S100A11 gene expression levels [11]: 25%

CO[C@@H]1[C@H](OC(=O)/C=C/C=C/C=C/C=C/C(=O)O)CC[C@]2(CO2)[C@H]1[C@@]1(C)O[C@@H]1CC=C(C)C [fumagillin]
effect on the action of cis-platin ([3]; OVCA 429, 0.1 μg/ml fumagillin, 4 hours): enhancement of the effect of cis-platin | effect on the action of cis-platin ([3]; OVCA 429, 0.1 μg/ml fumagillin, 8 hours): enhancement of the effect of cis-platin | effect on the action of cis-platin ([3]; OVCA 429, 0.1 μg/ml fumagillin, regardless of the length of incubation time (FIGS. 41 and 42)): enhancement of the effect of cis-platin | effect on the action of cis-platin ([3]; OVCA 429, 10 μg/ml fumagillin, regardless of the length of incubation time (FIGS. 41 and 42)): opposite effect | cell survival with fumagillin alone ([3]; OVCA 429, very high concentrations of fumagillin, 4 hours (FIG. 40)): up to 80% | inhibition of the methionine aminopeptidase activity of MetAP-2 [12]: covalently binds to and inhibits | expression of MetAP-2 after treatment [13]: increased expression of MetAP-2

SRB1 siRNA #1: siRNA to SRB1; target sequence AAGCAGCAGGTCCTTAAGAAC (guide AAGCAGCAGGTCCTTAAGAAC; target site or template, no part of the molecule; listed as DNA, chemistry not given here; listed as Homo Sapiens)
OVCAR-3: increased sensitivity to cis-platin [1]: yes | reduction in the level of SRB1 mRNA [7]: 60% | 429: increased sensitivity to cis-platin [3]: yes

eIF2Bε siRNA #2: siRNA to e-IF2Bε; target sequence AAACTCGAGATGACTTTGTGC (guide AAACTCGAGATGACTTTGTGC; target site or template, no part of the molecule; listed as DNA, chemistry not given here; listed as Homo Sapiens)
reduction in the level of e-IF2Bε mRNA [2]: 54%

MetAP-2 siRNA #3: siRNA to MetAP-2; target sequence AAACA GTG CCG ATT GTG AAA G (guide AAACAGTGCCGATTGTGAAAG; target site or template, no part of the molecule; listed as DNA, chemistry not given here; listed as Homo Sapiens)
levels of MetAP-2 expression [6]: did not result in a reduction

WDR1 siRNA #2: siRNA to WDR1; target sequence AAGTTCACAATTGGCGACCAC (guide AAGTTCACAATTGGCGACCAC; target site or template, no part of the molecule; listed as DNA, chemistry not given here; listed as Homo Sapiens)
reduction of WDR1 mRNA levels compared to control [4]: approximately 75%

S100A11 siRNA #1: siRNA to S100A11; AA AGG ATG GTT ATA ACT ACA C (guide AAAGGATGGTTATAACTACAC; target site or template, no part of the molecule; listed as DNA, chemistry not given here; listed as Homo Sapiens)
knockdown of S100A11 gene expression levels [11]: 50%

eEF1ε siRNA #2: siRNA to eEF1ε; target sequence AATACAGGGTCACTCAAGTAG (guide AATACAGGGTCACTCAAGTAG; target site or template, no part of the molecule; listed as DNA, chemistry not given here; listed as Homo Sapiens)
reduction in the level of eEF1ε mRNA [10]: successful in reducing the expression of eEF1ε

CO[C@@H]1[C@H](OC(=O)NC(=O)CCl)CC[C@]2(CO2)[C@H]1[C@@]1(C)O[C@@H]1CC=C(C)C [TNP-470]
inhibition of the methionine aminopeptidase activity of MetAP-2 [12]: covalently binds to and inhibits | hepatic metastasis of human colon cancer [14]: can be prevented
